Results: publication PMC5218480 (PLoS ONE, 2017)

System: MV-4-11 cells
Assay: Gene expression microarray analysis (Affymetrix PrimeView) and GSEA
Format: cell-based, human
Design: RFU PODN (11730768_x_at) / Fold change /veh PODN (11730768_x_at) / RFU LINC00158 (11744669_a_at) / Fold change /veh LINC00158 (11744669_a_at) / RFU DUSP10 (11751237_a_at) / Fold change /veh DUSP10 (11751237_a_at) / RFU ID3 (11757404_x_at) / Fold change /veh ID3 (11757404_x_at) / RFU PLEKHG5 (11737974_s_at) / Fold change /veh PLEKHG5 (11737974_s_at) / RFU LRRC4B (11730491_at) / Fold change /veh LRRC4B (11730491_at) / RFU GIMAP4 (11747438_a_at) / Fold change /veh GIMAP4 (11747438_a_at) / RFU KRT8 (11758183_x_at) / Fold change /veh KRT8 (11758183_x_at) / RFU CNN1 (11734310_a_at) / Fold change /veh CNN1 (11734310_a_at) / RFU VPS37D (11726825_at) / Fold change /veh VPS37D (11726825_at) / RFU C10orf10 (11716522_x_at) / Fold change /veh C10orf10 (11716522_x_at) / RFU KIR2DL2 /// KIR2DL4 /// KIR2DL5A /// KIR2DL5B /// KIR2DS1 /// KIR2DS2 /// KIR2DS3 /// KIR2DS4 /// KIR3DL3 /// KIR3DL3 /// KIR3DS1 (11738374_at) / Fold change /veh KIR2DL2 /// KIR2DL4 /// KIR2DL5A /// KIR2DL5B /// KIR2DS1 /// KIR2DS2 /// KIR2DS3 /// KIR2DS4 /// KIR3DL3 /// KIR3DL3 /// KIR3DS1 (11738374_at) / RFU C1QL1 (11718748_at) / Fold change /veh C1QL1 (11718748_at) / RFU TMPRSS4 (11747572_a_at) / Fold change /veh TMPRSS4 (11747572_a_at) / RFU HAMP (11756126_x_at) / Fold change /veh HAMP (11756126_x_at) / RFU RNFT2 (11725882_a_at) / Fold change /veh RNFT2 (11725882_a_at) / RFU NR4A2 (11747474_a_at) / Fold change /veh NR4A2 (11747474_a_at) / RFU ABCC12 (11746883_a_at) / Fold change /veh ABCC12 (11746883_a_at) / RFU TMEM136 (11760407_x_at) / Fold change /veh TMEM136 (11760407_x_at) / RFU CLDN22 /// WWC2 (11732394_at) / Fold change /veh CLDN22 /// WWC2 (11732394_at) / RFU HLA-DPB1 (11760878_x_at) / Fold change /veh HLA-DPB1 (11760878_x_at) / RFU SPINT1 (11716480_a_at) / Fold change /veh SPINT1 (11716480_a_at) / RFU GAP43 (11754022_s_at) / Fold change /veh GAP43 (11754022_s_at) / RFU A4GNT (11735810_at) / Fold change /veh A4GNT (11735810_at) / RFU PRB3 (11715151_x_at) / Fold change /veh PRB3 (11715151_x_at) / RFU TUBB4B (11761932_at) / Fold change /veh TUBB4B (11761932_at) / RFU CAPN14 (11732068_a_at) / Fold change /veh CAPN14 (11732068_a_at) / RFU TMCC2 (11721928_a_at) / Fold change /veh TMCC2 (11721928_a_at) / RFU IRGQ (11745062_a_at) / Fold change /veh IRGQ (11745062_a_at) / RFU FAM174B (11720279_a_at) / Fold change /veh FAM174B (11720279_a_at) / RFU TMPRSS4 (11748680_a_at) / Fold change /veh TMPRSS4 (11748680_a_at) / RFU FAM212B (11763350_a_at) / Fold change /veh FAM212B (11763350_a_at) / RFU PLEKHG5 (11743358_a_at) / Fold change /veh PLEKHG5 (11743358_a_at) / RFU ZSCAN30 (11745921_a_at) / Fold change /veh ZSCAN30 (11745921_a_at) / RFU CMKLR1 (11741424_a_at) / Fold change /veh CMKLR1 (11741424_a_at) / RFU LOC101060620 /// MAPK8IP1 (11723275_at) / Fold change /veh LOC101060620 /// MAPK8IP1 (11723275_at) / RFU SPTSSB (11747773_x_at) / Fold change /veh SPTSSB (11747773_x_at) / RFU PRSS12 (11739890_at) / Fold change /veh PRSS12 (11739890_at) / RFU BIN1 (11741810_x_at) / Fold change /veh BIN1 (11741810_x_at) / RFU WNT11 (11732464_a_at) / Fold change /veh WNT11 (11732464_a_at) / RFU C10orf10 (11716521_a_at) / Fold change /veh C10orf10 (11716521_a_at) / RFU C5orf56 (11738089_at) / Fold change /veh C5orf56 (11738089_at) / RFU CYB561 (11721691_x_at) / Fold change /veh CYB561 (11721691_x_at) / RFU ANKRD19P (11752326_a_at) / Fold change /veh ANKRD19P (11752326_a_at) / RFU OR2T12 /// OR2T33 /// OR2T8 (11738714_s_at) / Fold change /veh OR2T12 /// OR2T33 /// OR2T8 (11738714_s_at) / RFU VCAN (11748164_a_at) / Fold change /veh VCAN (11748164_a_at) / RFU JSRP1 (11732532_at) / Fold change /veh JSRP1 (11732532_at) / RFU KRTAP10-11 (11738290_x_at) / Fold change /veh KRTAP10-11 (11738290_x_at) / RFU MYO3A (11730013_a_at) / Fold change /veh MYO3A (11730013_a_at) / RFU EBF3 (11725865_a_at) / Fold change /veh EBF3 (11725865_a_at) / RFU CAMK2N1 (11719241_x_at) / Fold change /veh CAMK2N1 (11719241_x_at) / RFU C5orf56 (11738088_a_at) / Fold change /veh C5orf56 (11738088_a_at) / RFU OLFML3 (11715873_a_at) / Fold change /veh OLFML3 (11715873_a_at) / RFU LOC100653217 /// NTM (11731650_a_at) / Fold change /veh LOC100653217 /// NTM (11731650_a_at) / RFU MAPK11 (11762145_a_at) / Fold change /veh MAPK11 (11762145_a_at) / RFU FIZ1 (11724087_x_at) / Fold change /veh FIZ1 (11724087_x_at) / RFU OASL (11726364_x_at) / Fold change /veh OASL (11726364_x_at) / RFU SOX15 (11748057_x_at) / Fold change /veh SOX15 (11748057_x_at) / RFU CD79A (11719716_a_at) / Fold change /veh CD79A (11719716_a_at) / RFU HIST1H1D (11736915_at) / Fold change /veh HIST1H1D (11736915_at) / RFU CASKIN2 (11723855_a_at) / Fold change /veh CASKIN2 (11723855_a_at) / RFU LOC730098 (11760151_x_at) / Fold change /veh LOC730098 (11760151_x_at) / RFU OR4N2 (11742367_at) / Fold change /veh OR4N2 (11742367_at) / RFU PRRT2 (11749266_a_at) / Fold change /veh PRRT2 (11749266_a_at) / RFU SNX32 (11753110_a_at) / Fold change /veh SNX32 (11753110_a_at) / RFU CDHR5 (11726645_a_at) / Fold change /veh CDHR5 (11726645_a_at) / RFU RCAN1 (11760418_a_at) / Fold change /veh RCAN1 (11760418_a_at) / RFU FAM167A (11723789_a_at) / Fold change /veh FAM167A (11723789_a_at) / RFU FAM26E (11764081_at) / Fold change /veh FAM26E (11764081_at) / RFU ISYNA1 (11749810_s_at) / Fold change /veh ISYNA1 (11749810_s_at) / RFU ACY1 (11761880_at) / Fold change /veh ACY1 (11761880_at) / RFU 11764098_at / Fold change /veh 11764098_at / RFU SAMD14 (11745864_x_at) / Fold change /veh SAMD14 (11745864_x_at) / RFU NPB (11741838_a_at) / Fold change /veh NPB (11741838_a_at) / RFU TMPRSS6 (11731388_a_at) / Fold change /veh TMPRSS6 (11731388_a_at) / RFU KRTAP10-2 (11738614_at) / Fold change /veh KRTAP10-2 (11738614_at) / RFU ARHGAP8 /// PRR5-ARHGAP8 (11727945_x_at) / Fold change /veh ARHGAP8 /// PRR5-ARHGAP8 (11727945_x_at) / RFU KRTAP5-7 /// NADSYN1 (11734609_at) / Fold change /veh KRTAP5-7 /// NADSYN1 (11734609_at) / RFU RASL12 (11751679_a_at) / Fold change /veh RASL12 (11751679_a_at) / RFU CDKN2B (11736163_a_at) / Fold change /veh CDKN2B (11736163_a_at) / RFU PRF1 (11729649_at) / Fold change /veh PRF1 (11729649_at) / RFU, ZNF638 /// ZNF638-IT1 / Fold change vs veh, ZNF638 /// ZNF638-IT1 / RFU, PANK3 / Fold change vs veh, PANK3 / RFU, SH3YL1 / Fold change vs veh, SH3YL1 / RFU, ZEB2 / Fold change vs veh, ZEB2 / RFU, NRIP1 / Fold change vs veh, NRIP1 / RFU, PTTG1IP / Fold change vs veh, PTTG1IP / RFU, CAPN2 / Fold change vs veh, CAPN2 / RFU, MED14 / Fold change vs veh, MED14 / RFU, SNORA58 / Fold change vs veh, SNORA58 / RFU, C1orf63 / Fold change vs veh, C1orf63 / RFU, LRRFIP1 / Fold change vs veh, LRRFIP1 / RFU, NDUFAF7 / Fold change vs veh, NDUFAF7 / RFU, SLC12A2 / Fold change vs veh, SLC12A2 / RFU, IBTK / Fold change vs veh, IBTK / RFU, ESF1 / Fold change vs veh, ESF1 / Fold change vs veh, TMEM50B / RFU, TAOK1 / Fold change vs veh, TAOK1 / RFU, ACBD3 / Fold change vs veh, ACBD3 / RFU, TMA16 / Fold change vs veh, TMA16 / RFU, RWDD3 / Fold change vs veh, RWDD3 / RFU, BCAT1 / Fold change vs veh, BCAT1 / RFU, EDEM3 / Fold change vs veh, EDEM3 / RFU, TMEM33 / Fold change vs veh, TMEM33 / RFU, WDR75 / Fold change vs veh, WDR75 / RFU, AHCTF1 / Fold change vs veh, AHCTF1 / RFU, TFRC / Fold change vs veh, TFRC / RFU, ZDHHC17 / Fold change vs veh, ZDHHC17 / RFU, NOM1 / Fold change vs veh, NOM1 / RFU, ARL8B / Fold change vs veh, ARL8B / RFU, ZBTB11 / Fold change vs veh, ZBTB11 / RFU, TAMM41 / Fold change vs veh, TAMM41 / RFU, KIAA1704 /// LOC100996395 / Fold change vs veh, KIAA1704 /// LOC100996395 / RFU, ING1 / Fold change vs veh, ING1 / RFU, TRMT61B / Fold change vs veh, TRMT61B / RFU, FUBP3 / Fold change vs veh, FUBP3 / RFU, TP53 / Fold change vs veh, TP53 / RFU, TNKS2 / Fold change vs veh, TNKS2 / RFU, ZFP14 / Fold change vs veh, ZFP14 / RFU, ACTR2 / Fold change vs veh, ACTR2 / RFU, PPP3R1 / Fold change vs veh, PPP3R1 / RFU, PIK3R1 / Fold change vs veh, PIK3R1 / RFU, HNRNPA1 / Fold change vs veh, HNRNPA1 / RFU, RNF170 / Fold change vs veh, RNF170 / RFU, ZNF28 / Fold change vs veh, ZNF28 / RFU, RNGTT / Fold change vs veh, RNGTT / RFU, OGT / Fold change vs veh, OGT / RFU, BRD1 / Fold change vs veh, BRD1 / RFU, MARS / Fold change vs veh, MARS / RFU, ZNF655 / Fold change vs veh, ZNF655 / RFU, FAHD1 / Fold change vs veh, FAHD1 / RFU, BDP1 / Fold change vs veh, BDP1 / RFU, LRRCC1 / Fold change vs veh, LRRCC1 / RFU, ARID1A / Fold change vs veh, ARID1A / RFU, ZNF146 / Fold change vs veh, ZNF146 / RFU, ZNF330 / Fold change vs veh, ZNF330 / RFU, GPN3 / Fold change vs veh, GPN3 / RFU, C9orf123 / Fold change vs veh, C9orf123 / RFU, N4BP2L2 / Fold change vs veh, N4BP2L2 / RFU, ARFIP1 / Fold change vs veh, ARFIP1 / RFU, FAM179B / Fold change vs veh, FAM179B / RFU, BCL10 / Fold change vs veh, BCL10 / RFU, UHRF1BP1L / Fold change vs veh, UHRF1BP1L / RFU, BET1 / Fold change vs veh, BET1 / RFU, CNOT2 / Fold change vs veh, CNOT2 / RFU, ZNF268 / Fold change vs veh, ZNF268 / Fold change vs veh, ZNF507 / RFU, DGCR2 / Fold change vs veh, DGCR2 / RFU, WDSUB1 / Fold change vs veh, WDSUB1 / Fold change vs veh, HSP90B1 /// MIR3652 / RFU, ADSS / Fold change vs veh, ADSS / RFU, GK / Fold change vs veh, GK / RFU, ZNF148 / Fold change vs veh, ZNF148 / RFU, TAF9 / Fold change vs veh, TAF9 / RFU, SLC1A5 / Fold change vs veh, SLC1A5 / RFU, SLMO2 / Fold change vs veh, SLMO2 / RFU, ABCC4 / Fold change vs veh, ABCC4 / RFU, LOC101060439 /// RAP1B / Fold change vs veh, LOC101060439 /// RAP1B / RFU, RFX7 / Fold change vs veh, RFX7 / RFU, GTPBP10 / Fold change vs veh, GTPBP10 / RFU, CNEP1R1 / Fold change vs veh, CNEP1R1 / RFU, BIVM-ERCC5 /// ERCC5 / Fold change vs veh, BIVM-ERCC5 /// ERCC5 / RFU, ILF3 / Fold change vs veh, ILF3 / RFU 11762660_at / Fold change /veh 11762660_at / RFU VCAN (11757783_s_at) / Fold change /veh VCAN (11757783_s_at) / RFU DDX43 (11728927_at) / Fold change /veh DDX43 (11728927_at) / RFU KRT8 (11758188_x_at) / Fold change /veh KRT8 (11758188_x_at) / RFU NKD1 (11759106_at) / Fold change /veh NKD1 (11759106_at) / RFU SRD5A1 (11742802_a_at) / Fold change /veh SRD5A1 (11742802_a_at) / RFU TPSAB1 /// TPSB2 (11721975_s_at) / Fold change /veh TPSAB1 /// TPSB2 (11721975_s_at) / RFU GSTM3 (11746129_a_at) / Fold change /veh GSTM3 (11746129_a_at) / RFU IL23R (11737362_x_at) / Fold change /veh IL23R (11737362_x_at) / RFU TMEM51 (11727254_a_at) / Fold change /veh TMEM51 (11727254_a_at) / RFU PIWIL2 (11732686_x_at) / Fold change /veh PIWIL2 (11732686_x_at) / RFU ORM1 (11744905_x_at) / Fold change /veh ORM1 (11744905_x_at) / RFU CCDC152 (11743942_at) / Fold change /veh CCDC152 (11743942_at) / RFU ECM1 (11717891_a_at) / Fold change /veh ECM1 (11717891_a_at) / RFU IL23R (11748794_a_at) / Fold change /veh IL23R (11748794_a_at) / RFU TNFAIP8L3 (11732012_x_at) / Fold change /veh TNFAIP8L3 (11732012_x_at) / RFU MBOAT4 (11741988_at) / Fold change /veh MBOAT4 (11741988_at) / RFU 11764193_at / Fold change /veh 11764193_at / RFU TMEM53 (11763286_at) / Fold change /veh TMEM53 (11763286_at) / RFU MAGEB2 (11727129_at) / Fold change /veh MAGEB2 (11727129_at) / RFU TMEM200A (11744735_a_at) / Fold change /veh TMEM200A (11744735_a_at) / RFU CCDC152 (11751479_a_at) / Fold change /veh CCDC152 (11751479_a_at) / RFU FAM211A (11726209_a_at) / Fold change /veh FAM211A (11726209_a_at) / RFU RGS16 (11746705_a_at) / Fold change /veh RGS16 (11746705_a_at) / RFU VCAN (11755009_s_at) / Fold change /veh VCAN (11755009_s_at) / RFU RHOB (11743442_s_at) / Fold change /veh RHOB (11743442_s_at) / RFU RGS16 (11720943_a_at) / Fold change /veh RGS16 (11720943_a_at) / RFU RGS16 (11720944_at) / Fold change /veh RGS16 (11720944_at) / RFU, VPS4B / Fold change vs veh, VPS4B / RFU, CREB1 / Fold change vs veh, CREB1 / RFU, DNAJC13 / Fold change vs veh, DNAJC13 / RFU, GNAQ / Fold change vs veh, GNAQ / RFU, CDK5R1 / Fold change vs veh, CDK5R1 / RFU, ZRANB3 / Fold change vs veh, ZRANB3 / RFU, CUL4A / Fold change vs veh, CUL4A / RFU, CCNY / Fold change vs veh, CCNY / RFU, UFL1 / Fold change vs veh, UFL1 / RFU, COG3 / Fold change vs veh, COG3 / RFU, DIAPH2 / Fold change vs veh, DIAPH2 / RFU, SKA2 / Fold change vs veh, SKA2 / RFU, AFF3 / Fold change vs veh, AFF3 / RFU, LMF1 / Fold change vs veh, LMF1 / RFU, IPO11 / Fold change vs veh, IPO11 / RFU, DFFB / Fold change vs veh, DFFB / RFU, FOXP1 / Fold change vs veh, FOXP1 / RFU, CARD8 / Fold change vs veh, CARD8 / RFU, STRN3 / Fold change vs veh, STRN3 / RFU, ADK / Fold change vs veh, ADK / RFU, RASSF2 / Fold change vs veh, RASSF2 / RFU, WIPF1 / Fold change vs veh, WIPF1 / RFU, LARP1B / Fold change vs veh, LARP1B / RFU, RASA1 / Fold change vs veh, RASA1 / RFU, RB1 / Fold change vs veh, RB1 / RFU, PPFIA1 / Fold change vs veh, PPFIA1 / RFU, MAT2A / Fold change vs veh, MAT2A / RFU, CCT5 / Fold change vs veh, CCT5 / RFU, WDR92 / Fold change vs veh, WDR92 / RFU, CUX1 / Fold change vs veh, CUX1 / RFU, TTC7A / Fold change vs veh, TTC7A / RFU, TMEM135 / Fold change vs veh, TMEM135 / RFU, DEPTOR / Fold change vs veh, DEPTOR / RFU, CPM / Fold change vs veh, CPM / RFU, DNAJB6 / Fold change vs veh, DNAJB6 / RFU, CACNA2D3 / Fold change vs veh, CACNA2D3 / RFU, DTX4 / Fold change vs veh, DTX4 / RFU, TFCP2 / Fold change vs veh, TFCP2 / RFU, GMCL1 /// GMCL1P1 / Fold change vs veh, GMCL1 /// GMCL1P1 / RFU, AEBP2 / Fold change vs veh, AEBP2 / RFU, SNHG1 /// SNORD22 /// SNORD25 /// SNORD26 /// SNORD27 /// SNORD28 /// SNORD29 /// SNORD31 / Fold change vs veh, SNHG1 /// SNORD22 /// SNORD25 /// SNORD26 /// SNORD27 /// SNORD28 /// SNORD29 /// SNORD31 / Fold change (Aza/veh), C12orf56 (ProbeSet 11735607_a_at) / Fold change (ACY-1035/veh), C12orf56 (ProbeSet 11735607_a_at) / Fold change (Aza/veh), FGFR1OP (ProbeSet 11751329_s_at) / Fold change (ACY-1035/veh), FGFR1OP (ProbeSet 11751329_s_at) / Fold change (Aza/veh), VPS36 (ProbeSet 11739960_a_at) / Fold change (ACY-1035/veh), VPS36 (ProbeSet 11739960_a_at) / RFU SYPL1 (11715823_x_at) / Fold change /veh SYPL1 (11715823_x_at) / RFU IGFBP7 (11715501_s_at) / Fold change /veh IGFBP7 (11715501_s_at) / RFU REEP3 (11722064_at) / Fold change /veh REEP3 (11722064_at) / RFU IGLL1 (11728026_x_at) / Fold change /veh IGLL1 (11728026_x_at): dose or concentration left out as unconfirmed
Conditions: ProbeSet 11741199_a_at; LIST B

For `Nc1ncn([C@@H]2O[C@H](CO)[C@@H](O)[C@H]2O)c(=O)n1` [azacitidine], the “Fold change vs veh, LRRCC1” value was 0.97.
